In ChEMBL document CHEMBL5329153, “Is structural hybridization invoking new dimensions for antimalarial drug discovery research?” (RSC Med Chem, 2023):
Values after ≈ are worked out from the molar mass of the structure shown.

What was measured:
Type in all cases: functional, organism-based
Plasmodium falciparum [1] = assay: Antimalarial activity against Chloroquine resistant Plasmodium falciparum W2 assessed as parasitic growth inhibition measured after 48 hrs by fluorescence based assay; conditions: W2, 48 h
Plasmodium falciparum [2] = assay: Antimalarial activity against Chloroquine sensitive Plasmodium falciparum D6 assessed as parasitic growth inhibition
Plasmodium falciparum [3] = assay: Antimalarial activity against Chloroquine resistant Plasmodium falciparum W2 assessed as parasitic growth inhibition
Plasmodium falciparum [4] = assay: Antimalarial activity against Plasmodium falciparum K1 assessed as parasitic growth inhibition
Plasmodium falciparum [5] = assay: Antimalarial activity against Plasmodium falciparum Dd2 assessed as parasitic growth inhibition
Plasmodium falciparum [6] = assay: Antimalarial activity against Plasmodium falciparum 3D7 assessed as parasitic growth inhibition
Plasmodium falciparum [7] = assay: Antimalarial activity against Plasmodium falciparum assessed as parasitic growth inhibition
Plasmodium falciparum [8] = assay: Antimalarial activity against Chloroquine sensitive Plasmodium falciparum assessed as parasitic growth inhibition

SMILES: O=C1c2ccc(N3CCCCC3)cc2C(=O)N1CCCCNc1ccnc2cc(Cl)ccc12
- IC50 (Plasmodium falciparum [1]): 0.077 µM

SMILES: O=C1c2ccc(N3CCN(CCO)CC3)cc2C(=O)N1CCCCNc1ccnc2cc(Cl)ccc12
- IC50 (Plasmodium falciparum [1]): 0.014 µM

SMILES: O=C1c2ccc(N3CCN(CCO)CC3)cc2C(=O)N1CCCCCCNc1ccnc2cc(Cl)ccc12
- IC50 (Plasmodium falciparum [1]): 0.015 µM

SMILES: O=C1c2cccc(N3CCOCC3)c2C(=O)N1CCCCCCNc1ccnc2cc(Cl)ccc12
- IC50 (Plasmodium falciparum [1]): 0.025 µM

SMILES: O=C1c2ccc(N3CCOCC3)cc2C(=O)N1CCCCCCNc1ccnc2cc(Cl)ccc12
- IC50 (Plasmodium falciparum [1]): 0.019 µM

SMILES: Cc1cc(NCCNc2ccnc3cc(Cl)ccc23)nc(Nc2ccc(C(=O)N3CCCCC3)cc2)n1
- IC50 (Plasmodium falciparum [2]): 0.032 µM
- IC50 (Plasmodium falciparum [3]): 0.033 µM

SMILES: Cc1cc(NCCNc2ccnc3cc(Cl)ccc23)nc(Nc2ccc(C(=O)N3CCSCC3)cc2)n1
- IC50 (Plasmodium falciparum [2]): 0.032 µM
- IC50 (Plasmodium falciparum [3]): 0.033 µM

SMILES: C[C@H]1[C@H](OC(=O)CCC(=O)OCCc2cn(-c3ccnc4cc(Cl)ccc34)nn2)O[C@@H]2O[C@]3(C)CC[C@H]4[C@H](C)CC[C@@H]1[C@@]24OO3
- EC50 (Plasmodium falciparum [4]): 0.0026 µM
- EC50 (Plasmodium falciparum [5]): 0.0049 µM
- EC50 (Plasmodium falciparum [6]): 0.008 µM

SMILES: Cc1cc(NCCCNc2ccnc3cc(Cl)ccc23)nc(Nc2ccc(C(=O)N3CCCC3)cc2)n1
- IC50 (Plasmodium falciparum [2]): 0.032 µM
- IC50 (Plasmodium falciparum [3]): 0.033 µM

SMILES: C[C@H]1[C@@H](OCCCCc2cn(-c3cccc4cc(Cl)ccc34)nn2)O[C@@H]2O[C@]3(C)CC[C@H]4[C@H](C)CC[C@@H]1[C@@]24OO3
- EC50 (Plasmodium falciparum [4]): 0.0037 µM
- EC50 (Plasmodium falciparum [5]): 0.0061 µM
- EC50 (Plasmodium falciparum [6]): 0.0084 µM

SMILES: O=C1c2ccc(N3CCN(CCO)CC3)cc2C(=O)N1CCNc1ccnc2cc(Cl)ccc12
- IC50 (Plasmodium falciparum [1]): 0.044 µM

SMILES: Cc1nc2ccccc2c(C)c1C(=O)NNC(=S)Nc1ccc(Cl)c(Cl)c1
- IC50 (Plasmodium falciparum [7]): 0.19 mg/L (≈ 0.453 µM)

SMILES: Cc1nc2ccccc2c(C)c1C(=O)NNC(=S)NC(C)(C)C
- IC50 (Plasmodium falciparum [7]): 0.25 mg/L (≈ 0.757 µM)

SMILES: O=C1c2ccc(N3CCOCC3)cc2C(=O)N1CCCCNc1ccnc2cc(Cl)ccc12
- IC50 (Plasmodium falciparum [1]): 0.049 µM

SMILES: Cc1cc(NCCCCCCNc2ccnc3cc(Cl)ccc23)nc(Nc2ccc(C(=O)N3CCSCC3)cc2)n1
- IC50 (Plasmodium falciparum [2]): 0.032 µM
- IC50 (Plasmodium falciparum [3]): 0.033 µM

SMILES: O=C1c2cccc(N3CCCCC3)c2C(=O)N1CCCCCCNc1ccnc2cc(Cl)ccc12
- IC50 (Plasmodium falciparum [1]): 0.075 µM

SMILES: Cc1cc(NCCNc2ccnc3cc(Cl)ccc23)nc(Nc2ccc(C(=O)N3CCCC3)cc2)n1
- IC50 (Plasmodium falciparum [2]): 0.032 µM
- IC50 (Plasmodium falciparum [3]): 0.033 µM

SMILES: Cc1cc(Nc2ccc(C(=O)N3CCSCC3)cc2)nc(NCCCCNc2ccnc3cc(Cl)ccc23)n1
- IC50 (Plasmodium falciparum [2]): 0.032 µM
- IC50 (Plasmodium falciparum [3]): 0.033 µM

SMILES: Cc1cc(NCCCCNc2ccnc3cc(Cl)ccc23)nc(Nc2ccc(C(=O)N3CCCC3)cc2)n1
- IC50 (Plasmodium falciparum [2]): 0.032 µM
- IC50 (Plasmodium falciparum [3]): 0.033 µM

SMILES: O=C(c1ccc(Nc2nccc(NCCCCNc3ccnc4cc(Cl)ccc34)n2)cc1)N1CCOCC1
- IC50 (Plasmodium falciparum [2]): 0.032 µM
- IC50 (Plasmodium falciparum [3]): 0.033 µM

SMILES: O=C1c2cccc(N3CCOCC3)c2C(=O)N1CCCCNc1ccnc2cc(Cl)ccc12
- IC50 (Plasmodium falciparum [1]): 0.071 µM

SMILES: C[C@H]1[C@H](OC(=O)CCC(=O)NCCNc2ccnc3cc(Cl)ccc23)O[C@@H]2O[C@]3(C)CC[C@H]4[C@H](C)CC[C@@H]1[C@@]24OO3
- EC50 (Plasmodium falciparum [4]): 0.00078 µM
- EC50 (Plasmodium falciparum [5]): 0.001 µM
- EC50 (Plasmodium falciparum [6]): 0.0027 µM

SMILES: O=C(c1ccc(Nc2nccc(NCCCCNc3ccnc4cc(Cl)ccc34)n2)cc1)N1CCCCC1
- IC50 (Plasmodium falciparum [2]): 0.032 µM
- IC50 (Plasmodium falciparum [3]): 0.033 µM

SMILES: Cc1cc(Nc2ccc(C(=O)N3CCSCC3)cc2)nc(NCCCNc2ccnc3cc(Cl)ccc23)n1
- IC50 (Plasmodium falciparum [2]): 0.032 µM
- IC50 (Plasmodium falciparum [3]): 0.033 µM

SMILES: CC1=C(C(=O)Nc2ccc(Br)cn2)C(c2cn(-c3ccccc3)nc2-c2ccc(C)cc2)NC(=O)N1 (stereo not drawn)
- IC50 (Plasmodium falciparum [8]): 0.08 mg/L (≈ 0.147 µM)

SMILES: Cc1cc(NCCCCCCNc2ccnc3cc(Cl)ccc23)nc(Nc2ccc(C(=O)N3CCOCC3)cc2)n1
- IC50 (Plasmodium falciparum [2]): 0.032 µM
- IC50 (Plasmodium falciparum [3]): 0.033 µM

SMILES: C[C@H]1[C@H](OC(=O)CCC(=O)OCCNc2ccnc3cc(Cl)ccc23)O[C@@H]2O[C@]3(C)CC[C@H]4[C@H](C)CC[C@@H]1[C@@]24OO3
- EC50 (Plasmodium falciparum [4]): 0.0017 µM
- EC50 (Plasmodium falciparum [5]): 0.0023 µM
- EC50 (Plasmodium falciparum [6]): 0.0045 µM

SMILES: Cc1cc(NCCNc2ccnc3cc(Cl)ccc23)nc(Nc2ccc(C(=O)N3CCOCC3)cc2)n1
- IC50 (Plasmodium falciparum [2]): 0.032 µM
- IC50 (Plasmodium falciparum [3]): 0.033 µM

SMILES: C#CCCCN(CCNc1ccnc2cc(Cl)ccc12)C(=O)CCC(=O)O[C@@H]1O[C@@H]2O[C@]3(C)CC[C@H]4[C@H](C)CC[C@@H]([C@H]1C)[C@@]24OO3
- EC50 (Plasmodium falciparum [4]): 0.0013 µM
- EC50 (Plasmodium falciparum [5]): 0.0016 µM
- EC50 (Plasmodium falciparum [6]): 0.0035 µM

SMILES: O=C(c1ccc(Nc2nccc(NCCCCNc3ccnc4cc(Cl)ccc34)n2)cc1)N1CCSCC1
- IC50 (Plasmodium falciparum [2]): 0.032 µM
- IC50 (Plasmodium falciparum [3]): 0.033 µM

SMILES: C[C@H]1[C@H](OC(=O)CCC(=O)OCCCc2cn(-c3ccnc4cc(Cl)ccc34)nn2)O[C@@H]2O[C@]3(C)CC[C@H]4[C@H](C)CC[C@@H]1[C@@]24OO3
- EC50 (Plasmodium falciparum [4]): 0.0024 µM
- EC50 (Plasmodium falciparum [5]): 0.0046 µM
- EC50 (Plasmodium falciparum [6]): 0.0054 µM

SMILES: O=C(c1ccc(Nc2nccc(NCCCNc3ccnc4cc(Cl)ccc34)n2)cc1)N1CCOCC1
- IC50 (Plasmodium falciparum [2]): 0.032 µM
- IC50 (Plasmodium falciparum [3]): 0.033 µM
